# According to patent US8063225B2, “Tricyclic compound derivatives useful in the treatment of neoplastic diseases, inflammatory disorders and immunomodulatory disorders” (Chembridge Corporation, priority 2006, dated 2011):
# Tests used:
# [1] = target: T1, Jak2 (Homo sapiens, UniProt O60674); test: Tyrosine kinase assay (Kinase-Glo or AlphaScreen), Jak2; conditions: biochemical tyrosine kinase assay
# T1 construct: 6×His- or GST-tagged kinase domain fragments of the corresponding RTKs expressed in baculovirus system; host or cells: baculovirus system
# T1 sequence (O60674 849-1124 limits assumed, species assumed): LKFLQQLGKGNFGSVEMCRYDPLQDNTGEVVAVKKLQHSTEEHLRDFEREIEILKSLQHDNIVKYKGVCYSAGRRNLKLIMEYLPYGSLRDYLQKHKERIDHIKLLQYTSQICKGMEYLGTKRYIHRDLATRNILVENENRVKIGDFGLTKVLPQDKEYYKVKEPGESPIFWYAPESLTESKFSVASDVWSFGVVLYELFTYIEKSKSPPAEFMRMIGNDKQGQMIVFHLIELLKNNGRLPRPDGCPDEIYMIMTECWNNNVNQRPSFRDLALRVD
# Method: (§1) To determine inhibition of several tyrosine kinases, such as IGF1R, InsR, Alk, TrkA and Jak2, kinase assays are conducted using either Kinase-Glo (Promega) or AlphaScreen (PerkinElmer) kinase assay platforms. The Kinase-Glo Luminescent Kinase Assay is a homogeneous method for measuring kinase activity by determining the amount of ATP remaining after a kinase reaction. The luminescent signal is proportional to the amount of ATP and inversely proportional to the amount of kinase activity. Tyrosine kinase PT66 AlphaScreen Assay is a high-sensitivity homogeneous, anti-phosphotyrosine antibody-mediated luminescent proximity method measuring, incorporation of phosphate in synthetic poly(Glu-Tyr) substrate. The kinase preparations used consist of purified recombinant, 6×His- or GST-tagged kinase domain fragments of the corresponding RTKs expressed in baculovirus system.
# (§2) The IGF1R tyrosine kinase is assayed in Kinase-Glo ATP depletion assay using the synthetic polymer poly(Glu-Tyr, 4:1) (Sigma Chemicals) as a phosphoacceptor substrate. Each reaction mixture consists of a total volume of 10 μl and contains 40 ng of the enzyme, 5 μg of poly(Glu-Tyr), 10 μM of ATP and variable concentrations of test compounds. The mixtures also contain 50 mM Tris-HCl, pH 7.5; 5 mM MgCl2; 5 mM MnCl2; 2 mM DTT and 0.01% Tween 20. The reaction mixtures are incubated at 37° C. for 60 minutes and residual concentration of ATP in the mixture is determined by adding luciferase-containing Kinase-Glo (Promega) development reagent and counting luminescence levels using Fusion Universal Microplate Analyzer (PerkinElmer). Tested compounds are dissolved in dimethyl sulfoxide to a stock concentration of 10 mM and are typically evaluated in the assay at eight concentrations in 1 nM to 20 μM range, each in quadruplicate. […] IC50 values are derived by non-linear regression analysis using Prism 3.0 software (Graphpad Software). Other tyrosine kinases are assayed according to the same protocol after titrating amount of the enzyme to provide optimal signal-to-noise ratio and no more than 30% of total ATP consumption in the reaction conditions used.
# (§3) The IGF1R tyrosine kinase is assayed in Phosphotyrosine (PT66 or PT 100) AlphaScreen chemiluminescent assay (PerkinElmer) according to the manufacturerer's recommendations. Each kinase reaction mixture consists of a total volume of 15 μl and contains 0.1-1 ng of the enzyme, 7 ng of biotinylated poly(Glu-Tyr) (Cis-Bio), 10 μM of ATP and variable concentrations of test compounds. The mixtures also contain 50 mM Tris-HCl, pH 7.5; 5 mM MgCl2; 5 mM MnCl2; 2 mM DTT and 0.01% Tween 20. The reaction mixtures are incubated at room temperature for 30 minutes. Ten (10) μl of the mixture of […] and donor beads (as supplied by the manufacturer) is then added to the reaction and the incubation is continued for an additional 60 minutes.
# [2] = test system: Ba/F3; test: Cell proliferation inhibition, Cell Titer-Glo, Ba/F3; type: cell-based; conditions: Mus musculus, BaF3; cell proliferation assay, Ba/F3 cells
# Excerpt: (§4) IGF1R and other tyrosine kinase inhibitors can inhibit the proliferation of certain cancer cell lines indicating their possible therapeutic utility for treating the corresponding cancer types. Cancer cell lines of interest and control normal lines, including CHO, HEK293, BA/F3, COLO205, PC3, DU145, MCF7, Panc1, ACHN, Hep G2, H460, K562, TT, U87-MG, CAOV-3, SK-MEL5, Karpas 299 and human multiple myeloma cell lines H929, MM1s, MM1r, UTMC2, CPM2, KMS11, My5, KMS12PE, My7, JJN3, KMS18, U266, SKMM2, RPMI-8226 are plated in white, clear-bottomed 384-well cell culture plates at 2500-5000 cells per well and supplied with dilutions of tested compounds After a desired period of time (typically 3 days), the number of viable cells is quantitated by using Cell Titer-Glo Luminescent Cell Viability Assay (Promega), a cell proliferation assay system based on detection of total amount of ATP present as a measure of cell metabolic activity. The plated cells are mixed with the Cell Titer-Glo developing reagent and counted in a luminescence multiwell plate reader according to the standard manufacturer's protocol to generate IC50 curves for cell proliferation inhibition. Results are typically reported as percent of growth (% viability =(OD72h(compound)−ODday0))/(OD72h(no compound)−ODday0). Alternatively, viable cells are quantitated by using the conventional colorimetric MTT assay. The MTT assay is based on the cleavage of the yellow tetrazolium salt MTT to purple formazan crystal by metabolic active cells. The formazan is then solubilized, and the concentration determined by optical density at 570 nm. The cells plated and incubated with a compound as described above are supplemented with the solution of MTT and incubated for 2-3 hours. The growth medium is removed and dimethyl sulfoxide is added into each well to dissolve the formazan. The absorbance is measured on an ELISA plate reader with a test wavelength of 570 nm and a background subtraction wavelength of 630 nm to obtain sample signal (OD570-OD630). […] The results are reported in terms of IC50 value for a particular compound and a cell line in the standard 3-day proliferation assay using Cell Titer-Glo. […] The results are reported in terms of IC50 value for a particular compound and a cell line in the standard 3-day proliferation assay using MTT assay.
# [3] = test system: Karpas-299; test: Cell proliferation inhibition, Cell Titer-Glo, Karpas-299; type: cell-based; conditions: Homo sapiens; cell proliferation assay, Karpas-299 cells
# Excerpt: as §4
# [4] = target: T2, Alk (Homo sapiens, UniProt Q9UM73); test: Tyrosine kinase assay (Kinase-Glo or AlphaScreen), Alk; conditions: biochemical tyrosine kinase assay
# T2 construct: 6×His- or GST-tagged kinase domain fragments of the corresponding RTKs expressed in baculovirus system; host or cells: baculovirus system
# T2 sequence (Q9UM73 1116-1392 limits assumed, species assumed): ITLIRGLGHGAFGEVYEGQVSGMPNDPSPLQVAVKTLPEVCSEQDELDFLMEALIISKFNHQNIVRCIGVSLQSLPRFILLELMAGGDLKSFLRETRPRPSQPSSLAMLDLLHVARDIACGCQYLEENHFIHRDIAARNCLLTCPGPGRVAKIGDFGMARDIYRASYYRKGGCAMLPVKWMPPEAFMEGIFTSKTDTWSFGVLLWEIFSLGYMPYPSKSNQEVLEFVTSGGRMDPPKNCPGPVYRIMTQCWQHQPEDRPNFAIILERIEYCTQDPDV
# Method: as §1, §2, §3
# [5] = target: T3, InsR (Homo sapiens, UniProt P06213); test: Tyrosine kinase assay (Kinase-Glo or AlphaScreen), InsR; conditions: biochemical tyrosine kinase assay
# T3 construct: 6×His- or GST-tagged kinase domain fragments of the corresponding RTKs expressed in baculovirus system; host or cells: baculovirus system
# T3 sequence (P06213 1023-1298 limits assumed, species assumed): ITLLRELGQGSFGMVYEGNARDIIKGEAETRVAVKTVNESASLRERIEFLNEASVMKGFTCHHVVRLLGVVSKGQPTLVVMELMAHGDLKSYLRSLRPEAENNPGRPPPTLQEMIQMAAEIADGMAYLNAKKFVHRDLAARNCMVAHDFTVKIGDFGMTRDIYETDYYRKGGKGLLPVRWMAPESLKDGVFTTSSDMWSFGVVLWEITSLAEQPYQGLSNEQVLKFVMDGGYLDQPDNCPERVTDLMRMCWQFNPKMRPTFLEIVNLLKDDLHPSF
# Method: as §1, §2, §3
# [6] = target: T4, IGF1R tyrosine kinase (Homo sapiens, UniProt P08069); test: IGF1R tyrosine kinase assay (Kinase-Glo ATP depletion or PT66/PT100 AlphaScreen); conditions: biochemical tyrosine kinase assay
# T4 construct: 6×His- or GST-tagged kinase domain fragments of the corresponding RTKs expressed in baculovirus system; host or cells: baculovirus system
# T4 sequence (P08069 999-1274 limits assumed): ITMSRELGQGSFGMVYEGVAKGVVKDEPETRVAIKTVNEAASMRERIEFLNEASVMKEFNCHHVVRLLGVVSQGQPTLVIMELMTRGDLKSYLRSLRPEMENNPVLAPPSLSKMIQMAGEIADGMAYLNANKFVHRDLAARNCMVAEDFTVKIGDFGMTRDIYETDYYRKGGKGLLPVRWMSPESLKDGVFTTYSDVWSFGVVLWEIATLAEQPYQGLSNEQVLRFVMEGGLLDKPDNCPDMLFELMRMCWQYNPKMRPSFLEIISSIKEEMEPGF
# Method: as §1, §2, §3
# [7] = test system: K562; test: Cell proliferation inhibition, Cell Titer-Glo, K562; type: cell-based; conditions: Homo sapiens; cell proliferation assay, K562 cells
# Excerpt: as §4
SMILES,IC50 [1] [µM],IC50 [2] [µM],IC50 [3] [µM],IC50 [4] [µM],IC50 [5] [µM],IC50 [6] [µM],IC50 [7] [µM]
CN1CCC(N2C(=O)c3cc4nc(-c5c(NC[C@@H](O)COc6ccc7c(c6)OCO7)ccnc5O)[nH]c4cc3C2=O)CC1 [compound 78],0.5 to 5,> 15,5 to 15,0.5 to 5,0.5 to 5,< 0.5,5 to 15
CN1CCC(N2C(=O)c3cc4nc(-c5c(NC[C@@H](O)COc6ccc(C#N)c(Cl)c6)ccnc5O)[nH]c4cc3C2=O)CC1 [compound 77],0.5 to 5,> 15,> 15,0.5 to 5,5 to 15,0.5 to 5,> 15
COc1cc(F)ccc1OC[C@H](O)CNc1ccnc(O)c1-c1nc2cc3c(cc2[nH]1)C(=O)N(C1CCN(C)CC1)C3=O [compound 57],0.5 to 5,0.5 to 5,5 to 15,0.5 to 5,0.5 to 5,0.5 to 5,5 to 15
CN1CCC(N2C(=O)c3cc4nc(-c5c(NC[C@@H](O)Cn6ccc7c(C#N)cccc76)cc[nH]c5=O)[nH]c4cc3C2=O)CC1 [compound 112],0.5 to 5,5 to 15,0.5 to 5,0.5 to 5,0.5 to 5,0.5 to 5,5 to 15
O=C1c2cc3nc(-c4c(NC[C@@H](O)c5cccc(Cl)c5)cc[nH]c4=O)[nH]c3cc2C(=O)N1CCCO [compound 44],0.5 to 5,> 15,5 to 15,> 15,0.5 to 5,0.5 to 5,5 to 15
CN(C)CCN1CCC(N2C(=O)c3cc4nc(-c5c(NC[C@@H](O)COc6c(F)ccc(Cl)c6F)cc[nH]c5=O)[nH]c4cc3C2=O)CC1 [compound 128],0.5 to 5,> 15,> 15,0.5 to 5,0.5 to 5,< 0.5,> 15
CN1CCC(N2C(=O)c3cc4nc(-c5c(NC[C@@H](O)COc6cccc(N7CCOCC7)c6)ccnc5O)[nH]c4cc3C2=O)CC1 [compound 53],0.5 to 5,> 15,> 15,0.5 to 5,5 to 15,5 to 15,> 15
CN1CCC(N2C(=O)c3cc4nc(-c5c(NC[C@@H](O)COc6cccc7c6OC(F)C(F)(F)O7)cc[nH]c5=O)[nH]c4cc3C2=O)CC1 (stereo partly drawn) [compound 82],0.5 to 5,> 15,> 15,0.5 to 5,0.5 to 5,< 0.5,> 15
CN1CCC(N2C(=O)c3cc4nc(-c5c(NC[C@@H](O)COc6cccc(Br)c6)ccnc5O)[nH]c4cc3C2=O)CC1 [compound 76],0.5 to 5,0.5 to 5,0.5 to 5,0.5 to 5,0.5 to 5,0.5 to 5,0.5 to 5
Cc1ccc(OCC(O)CNc2ccnc(O)c2-c2nc3cc4c(cc3[nH]2)C(=O)N(CC(C)(C)CN(C)C)C4=O)c(C)c1 (stereo not drawn) [compound 62],5 to 15,5 to 15,5 to 15,5 to 15,0.5 to 5,< 0.5,0.5 to 5
CN(C)CC(C)(C)CN1C(=O)c2cc3nc(-c4c(NCC(O)COc5cccc(Cl)c5)ccnc4O)[nH]c3cc2C1=O (stereo not drawn) [compound 61],5 to 15,> 15,> 15,> 15,5 to 15,0.5 to 5,> 15
CN1CCC(N2C(=O)c3cc4nc(-c5c(NC[C@@H](O)COc6cccc(C(F)(F)F)c6)ccnc5O)[nH]c4cc3C2=O)CC1 [compound 73],0.5 to 5,> 15,0.5 to 5,5 to 15,0.5 to 5,0.5 to 5,0.5 to 5
COc1ccc2c(c1)cc(C)n2C[C@H](O)CNc1ccnc(O)c1-c1nc2cc3c(cc2[nH]1)C(=O)N(C1CCN(C)CC1)C3=O [compound 100],0.5 to 5,> 15,5 to 15,< 0.5,0.5 to 5,0.5 to 5,5 to 15
COc1cc(C#N)ccc1OC[C@H](O)CNc1ccnc(O)c1-c1nc2cc3c(cc2[nH]1)C(=O)N(C1CCN(C)CC1)C3=O [compound 50],0.5 to 5,> 15,> 15,5 to 15,5 to 15,0.5 to 5,> 15
Cc1ccc(OC[C@H](O)CNc2cc[nH]c(=O)c2-c2nc3cc4c(cc3[nH]2)C(=O)N(C2CCN(C)CC2)C4=O)c(C(C)(C)C)c1 [compound 80],5 to 15,> 15,5 to 15,0.5 to 5,5 to 15,0.5 to 5,5 to 15
